Structures are written as SMILES.

Broadly, the melting point is the temperature of the solid-liquid transition. Compound `CCOP(=O)(COc1ccc2c(c1)[nH]c1ccccc12)OCC` showed a melting point of 159 °C.

`N#Cc1nc2c(nc1N)CCCC2` displayed a melting point of 200 to 202 °C.

The compound `CC(=O)N(O)Cc1ccc(C(O)C#Cc2ccsc2)cc1` (stereo unspecified) had a melting point of 126 to 129 °C.

`Nc1nc2ccccc2c2c1ncn2CCCCNC(=O)Oc1ccc2ccccc2c1` returned a melting point of 154 to 155 °C.

`N#Cc1cncc(I)c1O` gave a melting point above 245 °C.

For the compound `Cc1ccc2c3c(ccc2n1)OC[C@H](CNCC1CCc2sc4ccc(F)cc4c2C1)O3` (stereo partly specified), the melting point is 115 to 118 °C.

As for `CC(C)n1nc(-c2sc(NC(=O)c3ccc(CN4CCCC4)cc3)nc2-c2ccccc2)ccc1=O`, the melting point was 221 to 222 °C.

On to `COc1ccc(NC(=O)c2csc(Br)c2OC)cc1N1CCN(C)CC1`, for which the melting point lay in the range of 120 to 122 °C.

`CC[C@@H]1CN(c2c(F)c(N)c3c(=O)c(C(=O)O)cn(C4CC4)c3c2F)C[C@H]1NC(=O)OC` (relative stereo) registered a melting point of 231 to 232 °C.

Take `NC(=O)CNC(=O)c1cccc(-c2cccc3nc(Oc4cccc(C(F)(F)F)c4)sc23)c1`: the melting point lay within 203 to 204 °C.

With `COc1ccc(-c2nc(Cl)n(C)c2-c2ccc(OC)cc2)cc1`, the melting point is 132 to 133 °C.

`O=C(O)CCCCc1ccc([N+](=O)[O-])cn1` registered a melting point of 105 to 107 °C.

As to `COc1ccc(-c2nn(C)c(=O)c3ccccc23)cc1Cl`, the melting point worked out at 195 °C.

Consider `CC(C)c1nn(-c2ccc3ccccc3n2)c(-c2ccc(F)cc2)c1Br`, for which the melting point is 110 to 114 °C.

Consider `CCC(=O)NN=C(C)c1cnccn1`, for which the melting point came out at 181 °C.

For `CC(=O)C(C)Sc1cc(C(C)(C)C)c(O)c(C(C)(C)C)c1` (stereo unspecified), the melting point lay within 94 to 97 °C.

Regarding `CC1C(=O)N(c2ccc(Cc3ccccc3)cc2)C(=S)N1c1ccccc1` (stereo unspecified), the melting point lay in the range of 123 to 125 °C.

The compound `CCN1CN(c2cccc(F)c2)c2ncccc2C1=O` showed a melting point of 123 to 124 °C.

In turn, `COCOc1c(-c2ccccc2)sc2ncccc12` gave a melting point of 54 °C.

The compound `N#Cc1ccccc1N1CCC2(CC1)OCCO2` came in with a melting point of 134 to 135 °C.

For the compound `N#Cc1cccnc1N1CCN(CC(=O)Nc2ccccc2[N+](=O)[O-])CC1`, the melting point was 134 to 136 °C.

In turn, `CC(SCc1cc2cc(C(F)(F)F)ccc2n1S(=O)(=O)c1ccccc1)C(=O)O` (stereo unspecified) yielded a melting point of 120 °C.

As for `CS(=O)(=O)N(Cl)C(=O)c1cc(Oc2ccc(C(F)(F)F)cc2Cl)ccc1[N+](=O)[O-]`, the melting point lay in the range of 160 to 161 °C.

Take `COC(=O)c1ccccc1Oc1ccc(Br)cc1[N+](=O)[O-]`: the melting point was in the range of 82 to 83 °C.

For the compound `O=C(c1ccc(F)cc1C(F)(F)F)N1Cc2cccnc2Nc2ccccc21`, the melting point fell in the range of 183 to 185 °C.

The compound `COc1ccc(-c2c(Cl)c(CN3C(=O)CCC3=O)nc3sc4c(c23)CC(C)(C)C(=O)C4)cc1` registered a melting point of 222 to 224 °C.

`COCCOc1ccc(/C=C/C(=O)NS(=O)(=O)c2cccnc2)c(Oc2ncc(C(F)(F)F)cc2Cl)c1` returned a melting point of 165 to 167 °C.

`NC(=O)c1cccc(NC(=O)Cc2cccc(Br)c2)c1`: the melting point was 202 °C.

In turn, `C=CCCCN(CCCC=C)Cc1noc(-c2ncn3c2CN(C)C(=O)c2ccccc2-3)n1` came in with a melting point of 167 to 169 °C.

In turn, `CCNC(=O)c1nc(-c2ccc(C)c(C)c2)n(-c2cc(Cl)ccc2C)c1-c1cccc(Cl)c1` showed a melting point of 141 to 143 °C.

`CC1=C(C(=O)OC(C)(C)C)C(c2ccccc2Cl)C(C(=O)OC(C)(C)C)=C(C)N1`: the melting point fell in the range of 194 to 196 °C.

`O=C(O)CCCCN1CCN(C2=Nc3ccccc3Cc3ccccc32)CC1` displayed a melting point of 235 to 237 °C.

In turn, `O=C(NOCCO)c1ccc(F)c(F)c1Nc1ccc(I)cc1Cl` had a melting point of 173 to 175 °C.

Consider `OC1CCc2ccc(Cl)cc2C1` (stereo unspecified), for which the melting point was 79 to 81 °C.

`Cc1oc2ccccc2c1C(=O)NCc1ccc2c(Br)c(OCC#N)ccc2c1`: the melting point fell in the range of 180 to 182 °C.

With `CC(=O)c1c(-c2ccccc2)[nH]c(-c2ccncc2)c1C`, the melting point was 202 to 203 °C.

With `CCN(CC)CC1CN(Cc2cc(OC)c(OC)c(OC)c2)CCN1C(=O)C1=Cc2cc(OC)c(OC)cc2CCC1` (stereo unspecified), the melting point is 157 to 160 °C.

The compound `Cc1ccc2c(c1)N(CC(=O)NC(C)(C)C)C(=O)C(Br)CC2CC1CCCCC1` (stereo unspecified) showed a melting point of 166 to 170 °C.

The compound `CC(C)(C)[Si](C)(C)OC1CN(c2ccc(N3C[C@H](CO)OC3=O)cc2F)C1` yielded a melting point of 183 to 186 °C.

Turning to `CN(SN(CC#N)CC#N)C(=O)Oc1cccc2c1OC(C)(C)C2`, the melting point lay within 94 to 95 °C.

Regarding `CCOC(=O)c1nc(-c2ccc(OC)cc2)ns1`, the melting point was 61 to 63 °C.

The compound `C=CCOCC(CC)(COCC=C)C(NC(=O)c1ccc(Cl)cc1)NC(=N[N+](=O)[O-])Nc1cccnc1` (stereo unspecified) came in with a melting point of 175 to 180 °C.

In turn, `NS(=O)(=O)c1ccc(-n2nc(C(F)F)cc2-c2nc3cccc(Cl)c3s2)cc1` yielded a melting point of 238 to 239 °C.

With `CS(=O)(=O)c1ccc(-c2cc(C(F)(F)F)nn2-c2ccc(C#N)cc2)cc1`, the melting point was 140 to 142 °C.

Consider `CCCCNc1ncc(C(=O)c2ccc(Cl)c([N+](=O)[O-])c2)s1`, for which the melting point fell in the range of 192 to 194 °C.

Regarding `CONC(=N)c1ccc(-c2ccc(-c3ccc(C(=N)NOC)nc3)o2)cc1`, the melting point is 235 to 237 °C.

As for `CC(C)(C)C12COC(CCCCBr)(OC1)OC2`, the melting point lay within 111 to 115 °C.

`CCn1cc(C(=O)O)c(=O)c2cc(Cl)c(N3CCCCC3)cc21` had a melting point of 230 °C.

Compound `NC(N)=Nc1nc(-c2ccc(C(=O)NC(=O)c3cccnc3)o2)cs1` displayed a melting point of 217 °C.

Consider `CCCCCCCCc1ccc(OCC(=O)Cn2cc(C(=O)O)c3ccccc32)cc1`, for which the melting point lay within 182 to 183 °C.

In turn, `CC(C)c1ccc(N(Cc2ccc(O)cc2)C(=O)C2CCCc3c(O)cccc32)cc1` (stereo unspecified) yielded a melting point of 241 to 243 °C.

As to `Cc1cc(NC(=O)CCCCCBr)ccc1O`, the melting point was 111 to 112 °C.

Take `COc1cc2c(cc1OC)CN(CCCOc1ccc(NC(=O)c3cccc(C(=O)c4ccccc4)c3)cc1)CC2`: the melting point is above 260 °C.

Turning to `Cc1nc2c(O[C@@H]3c4ccccc4C[C@H]3O)cc(C(=O)O)cc2n1C` (relative stereo), the melting point is 306 °C.

Turning to `CCOc1cc2c(Nc3cc(OC)c(Cl)cc3Cl)c(C#N)cnc2cc1OCCN1CCN(C)CC1`, the melting point was in the range of 141 to 143 °C.

As for `NS(=O)(=O)C1(C2C(Cl)=CC=CN2C(F)(F)F)C=CC(Cl)=CC1Cl` (stereo unspecified), the melting point is 125 to 126 °C.

On to `COc1ccc2c(c1)CCCC21NC(=O)NC1=O` (stereo unspecified), for which the melting point lay within 218 to 220 °C.

As to `CON1CCC2(CC1)NC(=O)C(c1cc(-c3ccc(Cl)cc3)c(F)cc1C)=C2OC(=O)C(C)(C)C`, the melting point lay in the range of 150 to 151 °C.

As to `O=S(=O)(Oc1ccc(C2(c3ccc(OS(=O)(=O)c4ccccc4)cc3)c3ccccc3-c3ccccc32)cc1)c1ccccc1`, the melting point lay within 225 to 226 °C.

`CC(=O)NCC1CN(c2ccc(N3CCC(C)(O)C(C)(C)C3)c(F)c2)C(=O)O1` (stereo unspecified): the melting point fell in the range of 114 to 116 °C.

In the case of `COc1cc(Nc2nc3ccnc(-c4cccc(N)c4)c3o2)cc(OC)c1OC`, the melting point fell in the range of 120 to 126 °C.

`O=C(O)c1nc2ccccc2nc1Cl` had a melting point of 133 to 139 °C.

The compound `CCOC(=O)C(C#N)=CNc1cccc(I)c1` yielded a melting point of 140 to 141 °C.

In the case of `COc1ccc(-c2nc3cc(F)ccc3s2)cc1OC(=O)N1CCOCC1`, the melting point is 170 °C.

For `CCOC(=O)C1COc2ccc(Cl)c(Cl)c2O1` (stereo unspecified), the melting point is 92 to 94 °C.

`CN1CC(c2ccc(S(C)(=O)=O)cc2)=C(c2ccccc2)C1=O` registered a melting point of 163 to 165 °C.

Take `Cc1ccsc1NC(=O)NCC(=O)N(CC(=O)N(C)c1ccccc1)c1ccccc1`: the melting point amounted to 172 °C.

The compound `Cc1ccc(-c2ccc3c(c2)C=C(C(=O)Nc2ccc(CN4CCCCC4)cc2)CC(c2ccccc2)O3)cc1` (stereo unspecified) had a melting point of 210 to 211 °C.

For the compound `COC(=O)CCNCC1CC2c3cc(C(C)(C)C)cc4[nH]cc(c34)CC2N(C)C1` (stereo unspecified), the melting point was in the range of 153 to 157 °C.

`Nc1c(CCO)cccc1C(O)c1ccc(Br)cc1` (stereo unspecified): the melting point lay within 128 to 129 °C.

`OCC12CC3CC(CC(C3)C1O)C2` (stereo unspecified) showed a melting point of 172 to 174 °C.

In turn, `CCOC(=O)c1c(C)nc2c(c1N)c1c(n2Cc2ccccc2)CCCC1` displayed a melting point of 146 to 147 °C.

Take `CN(CCOc1ccc(CC(Cl)C(=O)O)cc1)c1nc2ccccc2o1` (stereo unspecified): the melting point fell in the range of 142 to 143 °C.

Turning to `NCC1Cc2cc(F)cc(-c3ccncc3)c2O1` (stereo unspecified), the melting point fell in the range of 170 to 171 °C.

Consider `O=C(Nc1ccc2c(c1)CCC2)c1ccccc1Cl`, for which the melting point fell in the range of 144 to 145 °C.

On to `NC(=O)c1c(F)ccc(OCc2ccc3ccccc3n2)c1F`, for which the melting point lay in the range of 216 to 218 °C.

Consider `CCOC(=O)c1cnc(-c2cc3cccc(N(C)S(=O)(=O)c4cccs4)c3n2COC)s1`, for which the melting point was in the range of 142 to 143 °C.

Compound `CC(C)CNCc1cc2cc(NC(=O)c3ccc(OC[C@@H]4CCCO4)cc3)ccc2n1C` had a melting point of 132 to 133 °C.

Compound `CC[C@@H]1O[C@](/C=C/C2CC2)(C(F)(F)F)c2c(ccc3c2OCO3)NC1=O` (relative stereo) yielded a melting point of 188 to 190 °C.

`CC1CCC(C(C)C)C(OC(=O)/C=C\C(=O)c2ccccc2)C1` (stereo unspecified) returned a melting point of 85 to 87 °C.

In turn, `CC(C)(C)OC(=O)N1CCC(C(=O)c2nc3ccccc3n2Cc2ccc(F)cc2)CC1` showed a melting point of 114 to 115 °C.

For the compound `O=c1[nH]c2c([nH]1)-c1ccncc1CC2`, the melting point is above 310 °C.

The compound `COC(=O)c1cc([N+](=O)[O-])c(O)c([N+](=O)[O-])c1` came in with a melting point of 110 to 115 °C.

As for `NC(=O)c1ccccc1N1CCc2cc(Cl)cc([N+](=O)[O-])c21`, the melting point lay in the range of 225 to 226 °C.

Take `COc1cc2c(cc1-c1c(C)nn(C)c1C)-c1c(-c3cccs3)c3c(n1CC2)C(=O)N(C(C)C)CCN(C(=O)CCC(F)(F)F)C3`: the melting point is 256 to 258 °C.

`COC1=C(OC)C(=O)C(CN2CCOCC2)=C(C)C1=O` had a melting point of 60 to 62 °C.
